Experimental data: US8969325B2, “TRPV1 antagonists” (AbbVie Inc., priority 2011, dated 2015)

Tests used:
[1] = molecular target: T1, human TRPV1 (Homo sapiens (Human), UniProt Q8NER1); assay: Capsaicin Activation Assay (intracellular Ca2+, FLIPR); assay type: cell-based; conditions: recombinant HEK293 cells expressing hTRPV1, 50 nM capsaicin
Summary of the method: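 Ca2+ fluorescence was recorded by FLIPR every 1 to 5 seconds in HEK293 cells, clonally selected for stable human TRPV1 expression and plated one day ahead. Test compounds came as serial dilutions of 10 mM DMSO stocks.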

[2] = molecular target: T1, human TRPV1; assay: Acid Activation Assay (pH 5.0, intracellular Ca2+, FLIPR); assay type: cell-based; conditions: percentage of the maximal pH 5.0-induced response remaining; recombinant HEK293 hTRPV1 cells; maximum concentration tested 37.5 μM
Summary of the method: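 Readout: peak [Ca2+]i fluorescence over baseline on FLIPR, expressed as percentage remaining of the maximal pH 5.0-evoked signal. Stable hTRPV1-HEK293 cells with Calcium-4 dye received compound (12 half-log concentrations, maximum 37.5 μM) 3 min before acidic pH 5.0 buffer.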

T1 sequence (Q8NER1 whole entry): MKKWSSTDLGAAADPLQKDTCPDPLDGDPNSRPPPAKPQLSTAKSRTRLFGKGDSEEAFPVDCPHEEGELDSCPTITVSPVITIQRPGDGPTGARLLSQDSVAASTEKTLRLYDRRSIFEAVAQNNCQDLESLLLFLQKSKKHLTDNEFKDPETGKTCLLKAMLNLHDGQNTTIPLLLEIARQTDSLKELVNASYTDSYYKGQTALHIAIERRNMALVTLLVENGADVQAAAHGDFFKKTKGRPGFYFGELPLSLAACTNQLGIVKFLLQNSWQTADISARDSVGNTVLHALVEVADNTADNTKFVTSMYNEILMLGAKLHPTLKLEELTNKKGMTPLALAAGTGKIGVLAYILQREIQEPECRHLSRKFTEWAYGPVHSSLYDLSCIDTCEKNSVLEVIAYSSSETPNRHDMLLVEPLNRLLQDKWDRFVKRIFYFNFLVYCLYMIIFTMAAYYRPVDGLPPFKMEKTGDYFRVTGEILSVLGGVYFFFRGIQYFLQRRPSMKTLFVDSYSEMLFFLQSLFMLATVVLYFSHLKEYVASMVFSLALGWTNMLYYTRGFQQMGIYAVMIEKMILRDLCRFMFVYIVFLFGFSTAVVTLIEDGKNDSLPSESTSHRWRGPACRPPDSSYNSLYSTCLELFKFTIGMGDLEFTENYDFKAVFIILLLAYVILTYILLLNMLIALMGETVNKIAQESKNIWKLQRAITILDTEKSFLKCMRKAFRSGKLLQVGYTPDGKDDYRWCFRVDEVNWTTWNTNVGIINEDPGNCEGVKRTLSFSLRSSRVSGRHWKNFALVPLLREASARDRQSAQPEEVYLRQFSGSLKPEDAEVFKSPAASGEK

`CC1(C)C[C@H](NC(=O)Nc2ccc3c(c2)NC(=O)CO3)c2cc(F)ccc2O1` [Example 123, 1-[(4S)-6-fluoro-2,2-dimethyl-3,4-dihydro-2H-chromen-4-yl]-3-(3-oxo-3,4-dihydro-2H-1,4-benzoxazin-6-yl)urea] was tested, and the IC50 [1] was greater than 38000 nM and the “human TRPV1 H^+ (max % remain)” value [2] was 94%.

With `O=C1COc2ccc(NC(=O)N[C@@H]3CC4(CCCC4)Oc4ccccc43)cc2N1` [Example 124, 1-[(4R)-3,4-dihydrospiro[chromene-2,1′-cyclopentan]-4-yl]-3-(3-oxo-3,4-dihydro-2H-1,4-benzoxazin-6-yl)urea] the IC50 [1] was 1600 nM and the “human TRPV1 H^+ (max % remain)” value [2] was 97%.

In the case of `C[C@@]1(C(F)(F)F)C[C@@H](NC(=O)Nc2ccc3c(c2)NC(=O)CO3)c2ccccc2O1` [Example 125, 1-[(2S,4R)-2-methyl-2-(trifluoromethyl)-3,4-dihydro-2H-chromen-4-yl]-3-(3-oxo-3,4-dihydro-2H-1,4-benzoxazin-6-yl)urea], the IC50 [1] is reported as 330 nM and the “human TRPV1 H^+ (max % remain)” value [2] is reported as 96%.

`C[C@]1(C(F)(F)F)C[C@@H](NC(=O)Nc2ccc3c(c2)NC(=O)CO3)c2ccccc2O1` [Example 126, 1-[(2R,4R)-2-methyl-2-(trifluoromethyl)-3,4-dihydro-2H-chromen-4-yl]-3-(3-oxo-3,4-dihydro-2H-1,4-benzoxazin-6-yl)urea] was tested, and the IC50 [1] was 58 nM and the “human TRPV1 H^+ (max % remain)” value [2] was 87%.

In the case of `C[C@@]1(CF)C[C@@H](NC(=O)Nc2ccc3c(c2)NC(=O)CO3)c2ccc(C(F)(F)F)cc2O1` [Example 127, 1-[(2S,4R)-2-(fluoromethyl)-2-methyl-7-(trifluoromethyl)-3,4-dihydro-2H-chromen-4-yl]-3-(3-oxo-3,4-dihydro-2H-1,4-benzoxazin-6-yl)urea], the IC50 [1] is reported as 67 nM and the “human TRPV1 H^+ (max % remain)” value [2] is reported as 100%.

With `C[C@]1(CF)C[C@@H](NC(=O)Nc2ccc3c(c2)NC(=O)CO3)c2ccc(C(F)(F)F)cc2O1` [Example 128, 1-[(2R,4R)-2-(fluoromethyl)-2-methyl-7-(trifluoromethyl)-3,4-dihydro-2H-chromen-4-yl]-3-(3-oxo-3,4-dihydro-2H-1,4-benzoxazin-6-yl)urea] the IC50 [1] was 34 nM and the “human TRPV1 H^+ (max % remain)” value [2] was 99%.

`C[C@@]1(CF)C[C@@H](NC(=O)Nc2ccc3c(c2)NC(=O)CO3)c2ccc(Cl)cc2O1` [Example 129, 1-[(2S,4R)-7-chloro-2-(fluoromethyl)-2-methyl-3,4-dihydro-2H-chromen-4-yl]-3-(3-oxo-3,4-dihydro-2H-1,4-benzoxazin-6-yl)urea] was tested, and the IC50 [1] was 120 nM and the “human TRPV1 H^+ (max % remain)” value [2] was 97%.

For `C[C@@]1(C(F)F)C[C@@H](NC(=O)Nc2ccc3c(c2)NC(=O)CO3)c2ccccc2O1` [Example 130, 1-[(2S,4R)-2-(difluoromethyl)-2-methyl-3,4-dihydro-2H-chromen-4-yl]-3-(3-oxo-3,4-dihydro-2H-1,4-benzoxazin-6-yl)urea], the IC50 [1] was 1000 nM and the “human TRPV1 H^+ (max % remain)” value [2] was 98%.

`C[C@]1(C(F)F)C[C@@H](NC(=O)Nc2ccc3c(c2)NC(=O)CO3)c2ccccc2O1` [Example 131, 1-[(2R,4R)-2-(difluoromethyl)-2-methyl-3,4-dihydro-2H-chromen-4-yl]-3-(3-oxo-3,4-dihydro-2H-1,4-benzoxazin-6-yl)urea] was tested, and the IC50 [1] was 360 nM and the “human TRPV1 H^+ (max % remain)” value [2] was 89%.

`O=C1COc2ccc(NC(=O)NCC3CCc4ccc(C(F)(F)F)cc4O3)cc2N1` (stereo not shown) [Example 132, 1-(3-oxo-3,4-dihydro-2H-1,4-benzoxazin-6-yl)-3-{[7-(trifluoromethyl)-3,4-dihydro-2H-chromen-2-yl]methyl}urea] was tested, and the IC50 [1] was 31000 nM and the “human TRPV1 H^+ (max % remain)” value [2] was 98%.

`O=C1COc2ccc(NC(=O)NCC3COc4ccc(F)cc4C3)cc2N1` (stereo not shown) [Example 133, 1-[(6-fluoro-3,4-dihydro-2H-chromen-3-yl)methyl]-3-(3-oxo-3,4-dihydro-2H-1,4-benzoxazin-6-yl)urea] was tested, and the IC50 [1] was 2500 nM and the “human TRPV1 H^+ (max % remain)” value [2] was 100%.
